Active and inactive are the calls of the source.
Experiments:
[1] = molecular target: Glyceraldehyde-3-phosphate dehydrogenase (Homo sapiens, UniProt P04406)
[2] = molecular target: T1, Bcl-2-related protein A1 (Mus musculus, UniProt Q07440); test: small-molecule antagonists of Bfl-1/BH3 interaction – biochemical, TR-FRET, mouse Bfl-1, confirmation (AID 621);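 further: TR-FRET binding of GST-Bfl-1 to FITC-labelled Bid peptide via terbium antibody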
T1 sequence (Q07440 whole entry): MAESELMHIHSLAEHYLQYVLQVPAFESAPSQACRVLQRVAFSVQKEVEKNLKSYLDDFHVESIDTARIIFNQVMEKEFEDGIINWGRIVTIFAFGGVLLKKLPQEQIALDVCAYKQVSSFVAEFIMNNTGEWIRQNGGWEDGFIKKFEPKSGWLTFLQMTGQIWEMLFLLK

[3] = molecular target: T1, Bcl-2-related protein A1; test: Bfl-1 binding inhibitors, SAR follow-up, biochemical, fluorescence polarization (AID 1070)
[4] = molecular target: T2, Mucolipin-3 (Homo sapiens, UniProt Q8TDD5); test: Dose response cell-based high-throughput screening assay for agonists of the transient receptor potential channel ML3 (TRPML3). [Related pubchem assays: 1526, 1424, 1448 ]; format: functional
T2 sequence (Q8TDD5 whole entry): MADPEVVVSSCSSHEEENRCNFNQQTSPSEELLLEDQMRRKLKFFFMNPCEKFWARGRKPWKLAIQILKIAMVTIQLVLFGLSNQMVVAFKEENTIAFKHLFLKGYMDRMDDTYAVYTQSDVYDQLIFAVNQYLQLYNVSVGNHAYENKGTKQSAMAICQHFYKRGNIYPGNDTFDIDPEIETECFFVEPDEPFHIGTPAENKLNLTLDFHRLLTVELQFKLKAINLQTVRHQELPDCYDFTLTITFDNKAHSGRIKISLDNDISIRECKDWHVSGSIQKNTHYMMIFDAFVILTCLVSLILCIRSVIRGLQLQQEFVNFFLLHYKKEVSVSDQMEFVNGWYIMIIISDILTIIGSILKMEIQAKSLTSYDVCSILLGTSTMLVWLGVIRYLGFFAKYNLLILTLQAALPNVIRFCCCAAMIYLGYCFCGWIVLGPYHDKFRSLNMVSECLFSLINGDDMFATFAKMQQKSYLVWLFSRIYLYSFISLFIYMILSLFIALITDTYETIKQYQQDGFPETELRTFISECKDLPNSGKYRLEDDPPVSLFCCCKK

[5] = molecular target: T3, Ion channel NompC (Danio rerio, UniProt Q7T1G6); test: Fluorescence counterscreen assay for TRPML3 agonists: dose response cell-based high-throughput screening assay to identify agonists of the transient receptor potential channel N1 (TRPN1). [Related pubchem assays: 1526, 1424, 1448 ]; format: functional
[6] = molecular target: T2, Mucolipin-3; test: human mucolipin-3 activators, concentration-response – cell-based, calcium fluorescence, dose response (AID 2510); format: functional
[7] = molecular target: T3, Ion channel NompC; test: Late stage counterscreen for the probe development effort to identify selective agonists of the Transient Receptor Potential Channels 3 (TRPML3): fluorescence-based cell-based dose response assay for TRPN1 agonists.; format: functional
[8] = molecular target: T4, Dual specificity protein phosphatase 6 (Rattus norvegicus, UniProt Q64346); test: inhibition of rat DUSP6 enzyme activity – biochemical, in vitro, primary screen (AID 425)
T4 sequence (Q64346 whole entry): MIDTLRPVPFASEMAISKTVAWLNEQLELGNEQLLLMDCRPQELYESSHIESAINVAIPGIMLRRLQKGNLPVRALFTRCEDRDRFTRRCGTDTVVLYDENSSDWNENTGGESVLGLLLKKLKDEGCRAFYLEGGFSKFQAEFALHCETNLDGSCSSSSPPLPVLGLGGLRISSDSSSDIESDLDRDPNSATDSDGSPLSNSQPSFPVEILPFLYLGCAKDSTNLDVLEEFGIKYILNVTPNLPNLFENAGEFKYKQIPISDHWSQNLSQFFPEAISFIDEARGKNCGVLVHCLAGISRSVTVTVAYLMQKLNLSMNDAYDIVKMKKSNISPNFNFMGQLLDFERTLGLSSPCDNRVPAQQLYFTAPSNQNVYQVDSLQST

[9] = molecular target: T5, Heat shock factor protein 1 (Mus musculus, UniProt P38532); test: enhancement of HSF1-driven luciferase signal – cell-based, NIH3T3, luminescence, dose retest, confirmation (AID 435004); format: functional;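 further: stress induced by proteasome inhibitor MG132 added 30 min after compound; luciferase reporter driven by HSF1 response element in NIH3T3 cells; actives raise luminescence as potentiators of the MG132 stress response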
T5 sequence (P38532 whole entry): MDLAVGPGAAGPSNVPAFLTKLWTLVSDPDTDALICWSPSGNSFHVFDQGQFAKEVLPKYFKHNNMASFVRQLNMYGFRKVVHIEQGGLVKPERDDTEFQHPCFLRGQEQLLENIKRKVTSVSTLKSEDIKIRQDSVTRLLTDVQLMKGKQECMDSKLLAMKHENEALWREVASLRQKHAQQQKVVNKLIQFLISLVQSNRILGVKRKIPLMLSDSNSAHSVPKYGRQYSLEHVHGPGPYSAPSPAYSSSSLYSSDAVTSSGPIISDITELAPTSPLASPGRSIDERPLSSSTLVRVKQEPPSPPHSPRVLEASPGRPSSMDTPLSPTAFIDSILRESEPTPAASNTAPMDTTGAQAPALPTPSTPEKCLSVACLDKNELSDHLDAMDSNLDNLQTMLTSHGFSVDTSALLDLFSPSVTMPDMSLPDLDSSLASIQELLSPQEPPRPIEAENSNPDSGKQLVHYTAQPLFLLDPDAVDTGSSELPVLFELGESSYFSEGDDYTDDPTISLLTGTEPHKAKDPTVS

[10] = Luminescence Cell-Based Dose Confirmation HTS to Identify Inhibitors of Polyadenylation.; format: functional
[11] = molecular target: T6, Orexin/Hypocretin receptor type 1 (Homo sapiens, UniProt O43613); test: (§1) Fluorescence-based cell-based high throughput dose response assay for antagonists of the orexin 1 receptor (OX1R; HCRTR1). [Related pubchem assays (depositor defined):AID434989, AID435008, AID463079, AID485270, AID492963, AID492964, AID492965, AID493232, AID504717, AID504718]; format: functional
T6 sequence (O43613 whole entry): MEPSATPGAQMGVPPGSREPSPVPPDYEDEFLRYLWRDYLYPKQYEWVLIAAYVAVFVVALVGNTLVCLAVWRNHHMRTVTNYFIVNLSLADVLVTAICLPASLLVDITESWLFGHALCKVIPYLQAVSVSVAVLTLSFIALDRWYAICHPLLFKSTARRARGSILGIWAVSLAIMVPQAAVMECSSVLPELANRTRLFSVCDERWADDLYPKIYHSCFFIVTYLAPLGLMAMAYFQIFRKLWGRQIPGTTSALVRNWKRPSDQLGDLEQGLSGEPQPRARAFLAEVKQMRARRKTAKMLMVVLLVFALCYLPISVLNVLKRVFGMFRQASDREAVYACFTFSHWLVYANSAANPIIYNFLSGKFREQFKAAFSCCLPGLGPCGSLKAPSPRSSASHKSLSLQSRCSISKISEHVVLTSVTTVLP

[12] = tested on: CHO-K1; test: (§2) Counterscreen for antagonists of the orexin 1 receptor (OX1R; HCRTR1): Homogeneous time resolved fluorescence (HTRF)-based cell-based dose response assay to identify antagonists of the parental CHO-K1 cell line. [Related pubchem assays (depositor defined):AID434989, AID435008, AID463079, AID485270, AID492963, AID492964, AID492965, AID493232, AID504699, AID504701]; format: functional; conditions: Cricetulus griseus
[13] = as §2, with “Fluorescence-based” for “Homogeneous time resolved fluorescence (HTRF)-based”, “cell-based high throughput” for “cell-based”, “CHO” for “CHO-K1”; format: functional
[14] = molecular target: T6, Orexin/Hypocretin receptor type 1; test: as §1, with “Homogeneous Time Resolved Fluorescence (HTRF)-based” for “Fluorescence-based”; format: functional
[15] = M. tuberculosis growth inhibition, HTS (AID 449762); format: functional
[16] = molecular target: T7, Orexin receptor type 2 (Homo sapiens, UniProt O43614); test: Counterscreen assay for antagonists of the orexin 1 receptor (OX1R; HCRTR1): Fluorescence-based cell-based dose response assay for antagonists of the orexin 2 receptor (OX2R; HCRTR2), run by assay provider.; format: functional
T7 sequence (O43614 whole entry): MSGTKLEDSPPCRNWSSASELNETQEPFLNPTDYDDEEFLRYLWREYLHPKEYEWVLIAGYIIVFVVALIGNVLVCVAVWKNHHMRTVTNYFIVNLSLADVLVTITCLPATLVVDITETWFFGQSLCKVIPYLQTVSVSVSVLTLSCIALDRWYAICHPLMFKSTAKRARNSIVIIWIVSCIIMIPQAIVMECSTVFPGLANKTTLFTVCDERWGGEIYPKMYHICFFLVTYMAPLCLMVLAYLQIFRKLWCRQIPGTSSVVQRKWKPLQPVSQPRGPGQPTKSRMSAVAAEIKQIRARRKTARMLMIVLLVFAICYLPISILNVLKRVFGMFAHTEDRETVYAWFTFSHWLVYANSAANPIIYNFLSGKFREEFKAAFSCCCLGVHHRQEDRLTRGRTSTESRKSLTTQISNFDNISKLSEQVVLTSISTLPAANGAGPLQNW

[17] = molecular target: T7, Orexin receptor type 2; test: Counterscreen assay for antagonists of the orexin 1 receptor (OX1R; HCRTR1): Homogeneous Time Resolved Fluorescence (HTRF)-based cell-based dose response assay for antagonists of the orexin 2 receptor (OX2R; HCRTR2), run by assay provider.; format: functional
[18] = molecular target: 5-hydroxytryptamine receptor 1E (Homo sapiens, UniProt P28566); test: Counterscreen assay for S1P3 antagonists: Dose response cell-based high throughput screening assay to identify antagonists of the 5-Hydroxytryptamine Receptor Subtype 1E (5HT1E). [Related pubchem assays: 1429, 485 ]; format: functional
[19] = molecular target: Sphingosine 1-phosphate receptor 3 (Homo sapiens, UniProt Q99500); test: Dose response cell-based high throughput screening assay for antagonists of the Sphingosine 1-Phosphate Receptor 3 (S1P3). [Related pubchem assays: 1429, 485 ]; format: functional
[20] = molecular target: Cytochrome P450 2C19 (Homo sapiens, UniProt P33261); test: qHTS Assay for Inhibitors and Substrates of Cytochrome P450 2C19. [Related pubchem assays: 410 ]; format: ADME; conditions: read-out: Potency
[21] = molecular target: Aryl hydrocarbon receptor (Homo sapiens, UniProt P35869); test: Luminescence-based cell-based high throughput dose response assay for activators of the Aryl Hydrocarbon Receptor (AHR). [Related pubchem assays: 2796 (Primary screen (AHR activators in singlicate)), 2845 (Confirmation screen (AHR activators in triplicate)), 434939 (Counterscreen (PXR activators in triplicate)), 2804 (Summary (AHR activators))]; format: ADME
[22] = molecular target: NADPH oxidase 1 (Homo sapiens, UniProt Q9Y5S8); format: functional, cell-based;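 further: Cell-based assay with luminescence read-out, IC50 derived from inhibitor dose-response curves; intracellular ROS from endogenous NOX1 in intact HT29 colon cancer cells; potency of inhibitors that lower the ROS luminescence signal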
[23] = molecular target: Peroxisome proliferator-activated receptor gamma/Nuclear receptor corepressor 2 (Homo sapiens, UniProt P37231+Q9Y618); test: Counterscreen for NR2E3 inverse agonists: TR-FRET-based biochemical high throughput dose response assay to identify inverse agonists of the interaction between peroxisome proliferator-activated receptor gamma (PPARg) and nuclear receptor co-repressor 2 (NCOR2).; format: functional
[24] = molecular target: Photoreceptor-specific nuclear receptor (Homo sapiens, UniProt Q9Y5X4); test: ligands suppressing NR2E3 nuclear receptor activity – biochemical, TR-FRET, dose response (AID 463256); format: functional

T3 sequence (Q7T1G6 whole entry): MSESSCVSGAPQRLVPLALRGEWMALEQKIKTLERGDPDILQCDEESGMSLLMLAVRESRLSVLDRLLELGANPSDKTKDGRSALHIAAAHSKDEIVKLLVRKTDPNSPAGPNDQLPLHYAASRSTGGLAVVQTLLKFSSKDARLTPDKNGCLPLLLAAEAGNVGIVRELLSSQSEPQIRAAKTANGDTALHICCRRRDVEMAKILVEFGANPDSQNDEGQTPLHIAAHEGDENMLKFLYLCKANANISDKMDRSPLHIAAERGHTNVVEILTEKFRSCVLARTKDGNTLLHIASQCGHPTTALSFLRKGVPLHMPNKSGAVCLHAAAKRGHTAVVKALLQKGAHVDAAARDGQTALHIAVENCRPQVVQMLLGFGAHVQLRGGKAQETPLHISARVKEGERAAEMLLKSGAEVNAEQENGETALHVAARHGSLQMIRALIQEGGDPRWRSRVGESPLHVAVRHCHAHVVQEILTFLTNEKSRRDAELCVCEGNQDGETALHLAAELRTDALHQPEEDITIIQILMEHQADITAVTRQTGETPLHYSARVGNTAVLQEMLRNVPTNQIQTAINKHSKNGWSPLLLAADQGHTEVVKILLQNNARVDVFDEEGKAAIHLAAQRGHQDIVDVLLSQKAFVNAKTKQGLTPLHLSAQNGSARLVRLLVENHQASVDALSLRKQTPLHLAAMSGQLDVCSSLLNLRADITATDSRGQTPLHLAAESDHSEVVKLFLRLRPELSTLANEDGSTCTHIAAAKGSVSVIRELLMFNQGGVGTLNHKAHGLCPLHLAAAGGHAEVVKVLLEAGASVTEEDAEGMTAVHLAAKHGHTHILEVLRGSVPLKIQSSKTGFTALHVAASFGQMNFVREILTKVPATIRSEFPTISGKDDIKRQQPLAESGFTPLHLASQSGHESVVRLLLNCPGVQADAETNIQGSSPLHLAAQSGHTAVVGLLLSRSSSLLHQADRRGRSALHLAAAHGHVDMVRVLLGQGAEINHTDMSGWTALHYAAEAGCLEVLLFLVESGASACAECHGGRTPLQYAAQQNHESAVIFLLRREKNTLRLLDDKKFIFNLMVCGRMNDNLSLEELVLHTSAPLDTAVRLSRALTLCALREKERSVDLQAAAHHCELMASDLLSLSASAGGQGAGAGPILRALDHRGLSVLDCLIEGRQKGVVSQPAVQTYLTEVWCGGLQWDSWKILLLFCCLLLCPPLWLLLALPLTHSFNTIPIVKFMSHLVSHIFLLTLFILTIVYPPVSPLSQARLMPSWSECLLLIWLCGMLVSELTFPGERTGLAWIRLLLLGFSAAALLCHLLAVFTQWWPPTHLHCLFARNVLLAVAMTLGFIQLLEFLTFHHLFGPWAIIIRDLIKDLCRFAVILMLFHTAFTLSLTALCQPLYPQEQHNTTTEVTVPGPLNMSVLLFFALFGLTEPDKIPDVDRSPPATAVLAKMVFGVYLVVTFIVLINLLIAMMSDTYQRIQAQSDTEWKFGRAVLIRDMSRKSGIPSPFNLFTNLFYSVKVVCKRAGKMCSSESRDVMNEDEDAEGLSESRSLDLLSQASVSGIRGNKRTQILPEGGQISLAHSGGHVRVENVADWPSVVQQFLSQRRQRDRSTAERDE
Peroxisome proliferator-activated receptor gamma/Nuclear receptor corepressor 2, sequence (P37231 whole entry): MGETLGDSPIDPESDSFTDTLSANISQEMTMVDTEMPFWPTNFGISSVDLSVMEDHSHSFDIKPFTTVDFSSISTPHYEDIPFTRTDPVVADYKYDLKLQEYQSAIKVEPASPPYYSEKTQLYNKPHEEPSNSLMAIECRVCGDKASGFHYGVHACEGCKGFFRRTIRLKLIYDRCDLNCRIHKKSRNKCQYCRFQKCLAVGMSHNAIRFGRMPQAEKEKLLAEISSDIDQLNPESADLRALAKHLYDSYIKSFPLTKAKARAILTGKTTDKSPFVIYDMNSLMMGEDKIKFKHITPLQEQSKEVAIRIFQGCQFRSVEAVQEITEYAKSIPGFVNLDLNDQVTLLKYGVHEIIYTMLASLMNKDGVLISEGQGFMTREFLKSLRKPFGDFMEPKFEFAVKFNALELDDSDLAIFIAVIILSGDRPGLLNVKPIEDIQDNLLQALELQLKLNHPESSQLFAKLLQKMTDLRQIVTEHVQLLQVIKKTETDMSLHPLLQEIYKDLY
Peroxisome proliferator-activated receptor gamma/Nuclear receptor corepressor 2, sequence (Q9Y618 whole entry): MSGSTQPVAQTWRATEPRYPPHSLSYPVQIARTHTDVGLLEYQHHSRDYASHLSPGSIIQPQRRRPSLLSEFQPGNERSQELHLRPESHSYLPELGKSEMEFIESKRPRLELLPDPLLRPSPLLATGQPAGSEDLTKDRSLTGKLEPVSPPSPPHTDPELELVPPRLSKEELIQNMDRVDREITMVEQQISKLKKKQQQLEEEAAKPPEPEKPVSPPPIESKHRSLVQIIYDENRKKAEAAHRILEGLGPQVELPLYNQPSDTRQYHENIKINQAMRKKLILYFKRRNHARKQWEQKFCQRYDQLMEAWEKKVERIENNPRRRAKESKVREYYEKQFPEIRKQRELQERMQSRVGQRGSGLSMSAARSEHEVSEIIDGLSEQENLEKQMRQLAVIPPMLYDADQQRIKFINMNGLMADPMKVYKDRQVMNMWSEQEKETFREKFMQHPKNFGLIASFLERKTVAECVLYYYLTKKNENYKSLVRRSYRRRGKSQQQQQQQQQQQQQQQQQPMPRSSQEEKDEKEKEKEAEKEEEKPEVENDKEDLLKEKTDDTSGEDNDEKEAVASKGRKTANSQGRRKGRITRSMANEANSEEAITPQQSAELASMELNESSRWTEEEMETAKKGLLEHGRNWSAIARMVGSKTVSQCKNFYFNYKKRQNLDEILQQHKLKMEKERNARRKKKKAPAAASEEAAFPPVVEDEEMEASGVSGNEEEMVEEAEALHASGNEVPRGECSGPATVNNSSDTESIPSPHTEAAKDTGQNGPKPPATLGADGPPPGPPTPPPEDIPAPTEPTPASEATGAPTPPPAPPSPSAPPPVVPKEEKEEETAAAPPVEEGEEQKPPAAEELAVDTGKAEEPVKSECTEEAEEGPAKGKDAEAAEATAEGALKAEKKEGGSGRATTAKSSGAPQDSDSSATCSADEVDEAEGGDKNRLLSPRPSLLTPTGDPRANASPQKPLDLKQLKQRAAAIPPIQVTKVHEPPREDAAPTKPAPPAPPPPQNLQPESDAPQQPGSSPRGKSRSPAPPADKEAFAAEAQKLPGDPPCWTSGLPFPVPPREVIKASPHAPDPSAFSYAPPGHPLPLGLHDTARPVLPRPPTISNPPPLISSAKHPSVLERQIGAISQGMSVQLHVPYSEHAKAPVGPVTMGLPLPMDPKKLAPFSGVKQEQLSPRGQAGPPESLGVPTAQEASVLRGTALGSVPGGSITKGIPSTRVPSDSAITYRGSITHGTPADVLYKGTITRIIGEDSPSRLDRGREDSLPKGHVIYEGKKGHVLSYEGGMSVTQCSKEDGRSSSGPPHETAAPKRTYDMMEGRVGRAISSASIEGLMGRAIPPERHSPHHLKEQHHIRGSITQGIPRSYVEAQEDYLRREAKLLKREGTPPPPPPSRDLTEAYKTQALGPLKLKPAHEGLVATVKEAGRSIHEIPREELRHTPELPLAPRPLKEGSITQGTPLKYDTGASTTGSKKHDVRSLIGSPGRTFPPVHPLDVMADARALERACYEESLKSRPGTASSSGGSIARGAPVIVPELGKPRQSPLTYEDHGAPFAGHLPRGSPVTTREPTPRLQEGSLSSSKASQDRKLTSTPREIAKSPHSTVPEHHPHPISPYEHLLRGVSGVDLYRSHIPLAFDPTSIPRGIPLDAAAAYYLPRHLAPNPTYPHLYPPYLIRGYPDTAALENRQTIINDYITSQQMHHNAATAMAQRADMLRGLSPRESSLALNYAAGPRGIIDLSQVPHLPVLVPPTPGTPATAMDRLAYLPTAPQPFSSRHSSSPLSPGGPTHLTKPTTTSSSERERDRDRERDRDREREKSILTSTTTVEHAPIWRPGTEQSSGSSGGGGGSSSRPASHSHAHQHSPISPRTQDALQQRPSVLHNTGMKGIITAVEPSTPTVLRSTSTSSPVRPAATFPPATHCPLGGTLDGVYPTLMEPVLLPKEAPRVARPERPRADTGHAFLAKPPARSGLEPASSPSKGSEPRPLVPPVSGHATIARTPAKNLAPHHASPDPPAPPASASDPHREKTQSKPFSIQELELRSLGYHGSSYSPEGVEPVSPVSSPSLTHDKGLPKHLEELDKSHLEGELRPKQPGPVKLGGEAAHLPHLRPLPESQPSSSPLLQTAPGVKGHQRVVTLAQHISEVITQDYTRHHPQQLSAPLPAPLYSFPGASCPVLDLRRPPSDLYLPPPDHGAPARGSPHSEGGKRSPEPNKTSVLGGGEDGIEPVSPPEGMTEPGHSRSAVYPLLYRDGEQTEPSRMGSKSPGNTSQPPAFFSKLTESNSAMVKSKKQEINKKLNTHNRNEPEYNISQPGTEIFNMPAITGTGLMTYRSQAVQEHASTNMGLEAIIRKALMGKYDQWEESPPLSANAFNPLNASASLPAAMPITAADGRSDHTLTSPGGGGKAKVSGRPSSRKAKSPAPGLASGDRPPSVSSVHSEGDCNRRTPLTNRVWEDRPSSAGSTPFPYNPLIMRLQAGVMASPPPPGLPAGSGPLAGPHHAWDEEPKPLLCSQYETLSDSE
Glyceraldehyde-3-phosphate dehydrogenase, sequence (P04406 whole entry): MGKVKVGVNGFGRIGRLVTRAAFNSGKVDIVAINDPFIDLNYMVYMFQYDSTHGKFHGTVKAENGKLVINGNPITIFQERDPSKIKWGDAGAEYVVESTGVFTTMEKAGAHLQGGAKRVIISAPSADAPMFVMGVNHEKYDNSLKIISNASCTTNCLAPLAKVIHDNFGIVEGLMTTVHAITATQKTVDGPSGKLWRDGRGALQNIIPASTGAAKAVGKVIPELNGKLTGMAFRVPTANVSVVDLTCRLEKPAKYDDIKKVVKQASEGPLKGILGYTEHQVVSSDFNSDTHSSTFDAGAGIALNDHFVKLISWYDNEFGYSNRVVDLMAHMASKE

In the case of `O=C1C(Cl)=C(NCc2ccccc2)C(=O)N1c1ccc(Cl)c(Cl)c1`, the IC50 [1] is reported as > 100 µM (not active), the IC50 [2] is reported as 73.7 µM (active) and the IC50 [3] is reported as > 100 µM (not active).

For `CCCOc1cc(C)c(Cl)cc1S(=O)(=O)N(CC)CC`, the EC50 [4] was 1.6 µM (active), the EC50 [5] was > 29.9 µM (not active) and the EC50 [6] was 4.72 µM (active). The EC50 [7] was > 29.9 µM (not active).

For `[O-]/[N+](=C\c1ccc(OC(F)F)cc1)c1ccccc1`, the IC50 [8] was > 100 µM (not active) and the EC50 [9] was > 260 µM (inactive).

With `CC(NC(=O)c1ccc(Br)cc1Br)c1ccccc1` (centres undefined) the EC50 [10] was > 120 µM (not active).

In the case of `N#C/C(=C1\CCCN1)c1nc(-c2ccccc2)cs1`, the IC50 [11] is reported as 7.67 µM (active), the IC50 [12] is reported as > 66.2 µM (inactive) and the IC50 [13] is reported as > 49.8 µM (inactive). The IC50 [14] was 2.44 µM (active), the IC50 [15] was > 100 µM (active) and the IC50 [16] was > 88.8 µM (inactive). For the same compound, the IC50 [17] was > 50 µM (inactive).

In the case of `O=C(CSc1nnc(-c2ccc(Br)o2)n1Cc1ccccc1)c1ccccc1F`, the IC50 [18] is reported as > 50 µM (not active) and the IC50 [19] is reported as > 50 µM (not active).

For `CC(C)C[C@@H](CC(=O)N[C@H](CC(=O)N[C@@H]1CCNC[C@H]1C(=O)N[C@H](CC(=O)N[C@@H](CCC(=O)O)CC(=O)O)Cc1ccccc1)C(C)C)NC(=O)[C@@H]1CCCC[C@H]1N`, the AC50 [20] was 39.8 µM (inconclusive).

For `CCOc1ccc(-c2cc(C)n3nc(C(N)=O)cc3n2)cc1`, the EC50 [21] was 2.63 µM (active).

With `COc1ccc2c(Cl)c(C(=O)Oc3ccccc3Cl)sc2c1` the IC50 [22] was > 17 µM (not active).

With `Cc1cc(=O)oc2cc(OCC(=O)NCCc3c[nH]c4ccc(F)cc34)ccc12` the IC50 [23] was 8.78 µM (active) and the IC50 [24] was 6.11 µM (active).
